Measurements reported in the supplement of paper PMC10307832.

Experiments:
Assay in all cases: relative viability (nuclei count vs DMSO), 5 days (fraction); higher = more cells survive
CUDC-101 + Dasatinib = compound: C#Cc1cccc(Nc2ncnc3cc(OC)c(OCCCCCCC(=O)NO)cc23)c1 [CUDC-101] + Cc1nc(Nc2ncc(C(=O)Nc3c(C)cccc3Cl)s2)cc(N2CCN(CCO)CC2)n1 [Dasatinib] (partner 0.075 µM)
Procedure, shortened: (§1)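 Lung cancer cell lines in 1536-well plates got either a single drug or a fixed anchor-drug dose together with five library-drug doses (not always all listed) in √10 steps, by pin tool, on the day after seeding. Nuclei were counted after 5 days, and relative viability is the treated-to-vehicle ratio of nuclei counts. Values are medians of duplicate plates.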

NVP-TAE684 + Lapatinib = compound: COc1cc(N2CCC(N3CCN(C)CC3)CC2)ccc1Nc1ncc(Cl)c(Nc2ccccc2S(=O)(=O)C(C)C)n1 [NVP-TAE684] + CS(=O)(=O)CCNCc1ccc(-c2ccc3ncnc(Nc4ccc(OCc5cccc(F)c5)c(Cl)c4)c3c2)o1 [Lapatinib] (partner 2 µM)
Procedure, shortened: as §1

NVP-TAE684 + Olaparib = compound: COc1cc(N2CCC(N3CCN(C)CC3)CC2)ccc1Nc1ncc(Cl)c(Nc2ccccc2S(=O)(=O)C(C)C)n1 [NVP-TAE684] + O=C(c1cc(Cc2n[nH]c(=O)c3ccccc23)ccc1F)N1CCN(C(=O)C2CC2)CC1 [Olaparib] (partner 8 µM)
Procedure, shortened: as §1

Vandetanib + Luminespib = compound: COc1cc2/c(=N/c3ccc(Br)cc3F)nc[nH]c2cc1OCC1CCN(C)CC1 [Vandetanib] + CCNC(=O)c1noc(-c2cc(C(C)C)c(O)cc2O)c1-c1ccc(CN2CCOCC2)cc1 [Luminespib] (partner 0.01 µM)
Procedure, shortened: as §1

| Cell Line | relative viability (CUDC-101 + Dasatinib; first compound 0.01 µM) | relative viability (CUDC-101 + Dasatinib; first compound 0.03162 µM) | relative viability (CUDC-101 + Dasatinib; first compound 0.1 µM) | relative viability (CUDC-101 + Dasatinib; first compound 0.3162 µM) | relative viability (CUDC-101 + Dasatinib; first compound 1 µM) | relative viability (NVP-TAE684 + Lapatinib; first compound 0.2 µM) | relative viability (NVP-TAE684 + Lapatinib; first compound 0.6325 µM) | relative viability (NVP-TAE684 + Lapatinib; first compound 2 µM) | relative viability (NVP-TAE684 + Olaparib; first compound 0.2 µM) | relative viability (NVP-TAE684 + Olaparib; first compound 0.6325 µM) | relative viability (NVP-TAE684 + Olaparib; first compound 2 µM) | relative viability (Vandetanib + Luminespib; first compound 0.02 µM) | relative viability (Vandetanib + Luminespib; first compound 0.06325 µM) | relative viability (Vandetanib + Luminespib; first compound 0.2 µM) | relative viability (Vandetanib + Luminespib; first compound 0.6325 µM) | relative viability (Vandetanib + Luminespib; first compound 2 µM) |
| --- | --- | --- | --- | --- | --- | --- | --- | --- | --- | --- | --- | --- | --- | --- | --- | --- |
| NCI-H2087 | 0.795 | 0.946 | 0.841 | 0.971 | 0.718 | 1.36 | 1.02 | 0.986 | 0.646 | 0.598 | 0.503 | 0.183 | 0.197 | 0.132 | 0.179 | 0.255 |
| LCLC-97TM1 | 0.821 | 0.804 | 0.864 | 0.855 | 0.596 | 1.51 | 0.547 | 0.287 | 0.443 | 0.326 | 0.154 | 0.691 | 0.787 | 0.749 | 0.721 | 0.778 |
| EPLC-272H | 0.448 | 0.364 | 0.316 | 0.357 | 0.183 | 0.813 |  | 0.955 | 0.321 | 0.577 | 0.162 | 0.265 |  | 0.272 | 0.756 | 0.276 |
| CAL-12T | 0.72 | 0.372 | 0.346 | 0.514 | 0.318 | 0.666 | 0.471 | 0.305 | 0.664 | 0.781 | 0.267 | 0.367 | 0.461 | 0.183 | 0.307 | 0.232 |
| NCI-H1755 | 0.4 | 0.376 | 0.462 | 0.519 | 0.377 | 0.996 | 1.06 | 0.891 | 0.926 | 0.965 |  | 0.396 | 0.43 | 0.409 | 0.783 | 0.353 |
| H3255 | 0.429 | 0.373 |  | 0.298 | 0.171 | 0.279 | 0.18 | 0.167 | 0.539 | 0.532 | 0.407 | 0.982 | 0.795 | 0.829 | 0.728 | 0.501 |
| NCI-H1793 | 0.393 | 0.371 | 0.342 | 0.415 | 0.371 | 0.925 | 0.499 | 0.611 | 1.01 | 0.841 | 0.508 | 0.189 | 0.14 | 0.159 | 0.209 | 0.166 |
| LK-2 | 0.298 | 0.389 | 0.25 | 0.284 | 0.157 | 1.01 | 0.721 | 0.69 | 0.698 | 0.698 | 0.451 | 0.189 | 0.163 | 0.235 | 0.156 | 0.214 |
| SW 1573 | 0.62 | 0.764 | 0.517 | 0.498 | 0.358 | 1.16 | 1.12 | 1.13 | 0.519 | 0.401 | 0.148 | 0.383 | 0.227 | 0.415 | 0.24 | 0.18 |
| SK-MES-1 | 0.333 | 0.394 | 0.367 | 0.417 | 0.207 | 0.539 | 0.453 | 0.472 | 0.794 | 0.668 | 0.405 | 0.788 | 0.506 | 0.758 | 0.594 | 0.388 |
| NCI-H2023 | 0.564 | 0.635 | 0.616 | 0.748 | 0.461 | 1.1 | 0.622 | 0.193 | 0.587 | 0.518 | 0.138 | 0.811 | 0.604 | 0.796 | 0.731 | 0.497 |
| NCI-H2126 | 0.7 | 0.588 | 0.612 | 0.579 | 0.481 | 0.755 | 0.719 | 0.55 | 0.88 |  | 0.712 | 0.882 | 0.855 | 0.888 | 0.914 | 0.687 |
| RERF-LC-KJ | 0.793 | 0.891 | 0.765 | 0.793 | 0.421 | 0.871 | 0.867 | 0.905 | 1.1 | 0.758 | 0.547 | 1.1 | 1.21 | 1.29 | 1.14 | 1.12 |
| NCI-H3122 | 0.82 | 0.867 | 0.798 | 0.783 | 0.454 | 0.369 | 0.213 | 0.18 | 0.342 | 0.225 | 0.111 | 0.0842 | 0.111 | 0.0787 | 0.0959 | 0.0934 |
| NCI-H322M | 0.28 | 0.243 | 0.224 | 0.236 | 0.276 | 0.637 | 0.609 | 0.404 | 0.715 | 0.723 | 0.558 | 0.805 | 0.8 | 0.889 | 0.834 | 0.504 |
| NCI-H647 | 0.255 | 0.198 | 0.23 | 0.224 | 0.136 | 1.34 | 1.02 | 0.686 | 0.434 | 0.562 | 0.16 | 0.334 | 0.337 | 0.0629 | 0.283 | 0.285 |
| EMC-BAC-2 | 0.359 | 0.324 | 0.35 | 0.262 | 0.149 | 0.856 | 0.805 | 0.586 | 0.506 | 0.447 | 0.35 | 1.15 | 1.11 | 0.216 | 1.27 | 1.07 |
| PC-14 | 0.292 | 0.232 | 0.0804 | 0.0597 | 0.0289 | 0.336 | 0.305 | 0.245 | 0.237 | 0.255 | 0.0711 | 0.234 | 0.152 | 0.184 | 0.13 | 0.131 |
| 201T | 0.578 | 0.563 | 0.579 | 0.591 | 0.511 | 1.09 | 1.05 | 0.928 | 0.886 | 0.823 | 0.815 | 1.03 | 1.05 | 1.01 | 0.99 | 0.974 |
| LXF-289 | 0.248 | 0.203 | 0.245 | 0.394 | 0.182 | 0.946 |  | 0.861 | 0.931 | 1.08 | 0.487 | 0.626 | 0.627 | 0.744 | 0.718 | 0.624 |
